{
  "source": "ChEMBL document CHEMBL1155818",
  "about": "“Uredinorubellins and caeruleoramularin, photodynamically active anthraquinone derivatives produced by two species of the genus ramularia” (J Nat Prod, 2008)",
  "key": {"[1]": {"organism": "Oryctolagus cuniculus", "assay": "Reduction of cell viability in rabbit HIG82 cells at 2 uM followed by illumination at 2.5 W/cm'2 cold light for 40 seconds by XTT assay", "type": "functional, cell-based"}, "[2]": {"organism": "Oryctolagus cuniculus", "assay": "Reduction of cell viability in rabbit HIG82 cells at 10 uM followed by illumination at 2.5 W/cm'2 cold light for 40 seconds by XTT assay", "type": "functional, cell-based"}, "[3]": {"test_system": "J774.A1", "assay": "Reduction of cell viability in mouse J774A.1 cells at 2 uM followed by illumination at 2.5 W/cm'2 cold light for 40 seconds by XTT assay", "type": "functional, cell-based"}, "[4]": {"test_system": "J774.A1", "assay": "Reduction of cell viability in mouse J774A.1 cells at 10 uM followed by illumination at 2.5 W/cm'2 cold light for 40 seconds by XTT assay", "type": "functional, cell-based"}, "[5]": {"test_system": "Pseudomonas aeruginosa", "assay": "Antimicrobial activity against […] Pseudomonas aeruginosa DSM1117 on exposure to 2.5 W/cm'2 cold light for 40 secs at 1 to 100 uM", "type": "functional, organism-based"}, "[6]": {"test_system": "HT-29", "assay": "Reduction of cell viability in human HT29 cells at 2 uM followed by illumination at 2.5 W/cm'2 cold light for 40 seconds by XTT assay", "type": "functional, cell-based"}, "[7]": {"test_system": "HT-29", "assay": "Reduction of cell viability in human HT29 cells at 10 uM followed by illumination at 2.5 W/cm'2 cold light for 40 seconds by XTT assay", "type": "functional, cell-based"}},
  "note": "Active and inactive are the calls of the source. The calls are words filed in the database; no cut-off is given here.",
  "data": [
    {"smiles": "Cc1cc(O)c2c(c1)[C@H](O)[C@]13Cc4cc(O)c5c(c4[C@H]1C=C[C@@H](O)[C@@]3(O)C2=O)C(=O)c1cccc(O)c1C5=O", "values": [
      {"measurement": "Activity", "setting": "[1]", "result": "Active"},
      {"measurement": "Activity", "setting": "[2]", "result": "Active"},
      {"measurement": "Activity", "setting": "[3]", "result": "Active"},
      {"measurement": "Activity", "setting": "[4]", "result": "Active"},
      {"measurement": "Activity", "setting": "[5]", "result": "inactive"}
    ]},
    {"smiles": "Cc1cc(O)c2c(c1)[C@H](O)[C@]13Cc4cc(O)c5c(c4[C@H]1C=C[C@@H](O)[C@H]3OC2=O)C=C1C(=O)C=CC(O)=C1C5=O", "values": [
      {"measurement": "Activity", "setting": "[1]", "result": "inactive"},
      {"measurement": "Activity", "setting": "[3]", "result": "inactive"},
      {"measurement": "Activity", "setting": "[5]", "result": "inactive"}
    ]},
    {"smiles": "Cc1cc(O)c2c(c1)[C@H](O)[C@]13Cc4cc(O)c5c(c4[C@H]1C=C[C@@H](O)[C@@]3(O)C2=O)C(=O)c1c(O)ccc(O)c1C5=O", "values": [
      {"measurement": "Activity", "setting": "[6]", "result": "Active"},
      {"measurement": "Activity", "setting": "[7]", "result": "Active"},
      {"measurement": "Activity", "setting": "[5]", "result": "inactive"}
    ]},
    {"smiles": "Cc1cc(O)c2c(c1)C(=O)c1cccc(O)c1C2=O", "values": [
      {"measurement": "Activity", "setting": "[1]", "result": "inactive"},
      {"measurement": "Activity", "setting": "[3]", "result": "inactive"},
      {"measurement": "Activity", "setting": "[5]", "result": "inactive"}
    ]}
  ]
}
